We go through 31 molecules from US20060240048A1 (priority 2002, published 2006).

Bounds are passed on as bounds.

In the test the target is T1, human cannabinoid CB2 receptor (Homo sapiens, UniProt P34972).
T1 construct: expressed in transfected cells; host or cells: Saccharomyces cerevisiae strain MMY23
The experiment in a line: Cannabinoid CB2 receptor agonist activity, yeast reporter assay (FDGlu fluorescence).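 For Emax: 100% equals maximal response of reference agonist HU210.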 The conditions noted are these: for Emax: read-out: efficacy value (Emax) at the cloned human cannabinoid CB2 receptor. It counts as cell-based. The procedure:
The cannabinoid CB2 receptor agonist activity of the compounds of formula (I) was determined in accordance with the following experimental method.
Yeast (Saccharomyces cerevisiae) cells expressing the human cannabinoid CB2 receptor were generated by integration of an expression cassette into the ura3 chromosomal locus of yeast strain MMY23. This cassette consisted of DNA sequence encoding the human CB2 receptor flanked by the yeast GPD promoter to the 5′ end of CB2 and a yeast transcriptional terminator sequence to the 3′ end of CB2. MMY23 expresses a yeast/mammalian chimeric G-protein alpha subunit in which the C-terminal 5 amino acids of Gpa1 are replaced with the C-terminal 5 amino acids of human Gαi3 (as described in Brown et al. (2000), Yeast 16:11-22). Cells were grown at 30° C. in liquid Synthetic Complete (SC) yeast media (Guthrie and Fink (1991), Methods in Enzymology, Vol. 194) lacking uracil, tryptophan, adenine and leucine to late logarithmic phase (approximately 6 OD600/ml).
Agonists were prepared as 10 mM stocks in DMSO. […] Agonist solutions in DMSO (1% final assay volume) were transferred into black, clear bottom, microtitre plates from NUNC (96- or 384-well). […] This mixture (50 ul per well for 384-well plates, 200 ul per well for 96-well plates) was added to agonist in the assay plates (Multidrop 384, Labsystems). After incubation at 30° C. for 24 hours, fluorescence resulting from degradation of FDGlu to fluorescein due to exoglucanase, an endogenous yeast enzyme produced during agonist-stimulated cell growth, was determined using a Spectrofluor microtitre plate reader (Tecan; excitation wavelength: 485 nm; emission wavelength: 535 nm). Fluorescence was plotted against compound concentration and iteratively curve fitted using a four parameter fit to generate a concentration effect value.
where Max[compound X] and Min[compound X] are the fitted maximum and minimum respectively from the concentration effect curve for compound X, and Max[HU210] and Min[HU210] are the fitted maximum and minimum respectively from the concentration effect curve for (6aR,10aR)-3-(1,1′-Dimethylheptyl)-6a,7,10,10a-tetrahydro-1-hydroxy-6,6-dimethyl-6H-dibenzo[b,d]pyran-9-methanol (HU210; available from Tocris). Equieffective molar ratio (EMR) values were calculated from the equation EMR=EC50 [compound X]/EC50 [HU210]
Where EC50 [compound X] is the EC50 of compound X and EC50 [HU210] is the EC50 of HU210.
On the technique in general: Reporter assays use an easily measured gene product as a stand-in for the process of interest.

T1 sequence (P34972 whole entry): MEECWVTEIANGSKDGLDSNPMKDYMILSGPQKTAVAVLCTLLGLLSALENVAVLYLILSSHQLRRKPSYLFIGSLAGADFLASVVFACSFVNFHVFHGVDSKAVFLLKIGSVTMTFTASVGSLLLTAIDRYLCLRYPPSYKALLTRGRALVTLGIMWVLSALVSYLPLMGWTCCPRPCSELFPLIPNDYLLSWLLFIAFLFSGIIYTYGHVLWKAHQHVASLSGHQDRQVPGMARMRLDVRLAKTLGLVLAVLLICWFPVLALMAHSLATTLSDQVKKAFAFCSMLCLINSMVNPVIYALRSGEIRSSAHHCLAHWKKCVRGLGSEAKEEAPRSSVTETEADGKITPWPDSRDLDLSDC

As to `CC(C)c1cc(Nc2cccc(F)c2)ncc1C(=O)NCC1CCC1` [Example 34, N-Cyclobutylmethyl-6-(3-fluoro-phenylamino)-4-isopropyl-nicotinamide], the EC50 was less than 300 nM and the maximal response (Emax) is more than 50%. For `CC(C)c1nc(Nc2cccc(Cl)c2)ccc1C(=O)NCC1CCOCC1` [Example 208, 6-(3-Chloro-phenylamino)-2-isopropyl-N-(tetrahydro-pyran-4-ylmethyl)-nicotinamide], the EC50 was less than 300 nM and the Emax was more than 50%. In the case of `O=C(NCC1CCC1)c1cnc(Nc2cccc(Cl)c2)cc1C(F)(F)F` [Example 112, N-Cyclobutylmethyl-6-(3-chlorophenylamino)-4-tri-fluoromethyl-nicotinamide], the half-maximal effective concentration (EC50) was less than 300 nM and the maximum response (Emax) was more than 50%. For `CC(C)c1cc(Nc2ccc(Cl)c(Cl)c2)ncc1C(=O)NCC1CCC1` [Example 251, N-Cyclobutylmethyl-6-(3,4-dichtoro-phenylamino)-4-isopropyl-nicotinamide], the half-maximal effective concentration (EC50) is less than 300 nM and the maximal response (Emax) was more than 50%. Take `CC(C)c1cc(Nc2cccc(C(F)(F)F)c2)ncc1C(=O)NCC1CCOCC1` [Example 19, 4-Isopropyl-N-(tetrahydro-pyran-4-ylmethyl)-6-(3-trifluoromethyl-phenylamino) nicotinamide]: the EC50 was less than 300 nM and the Emax was more than 50%. For `O=C(NCC1CCC1)c1cnc(Nc2cc(Cl)cc(Cl)c2)cc1C(F)(F)F` [Example 150, N-Cyclobutylmethyl-6-(3,5-dichloro-phenylamino)-4-tri-fluoromethyl-nicotinamide], in that order: less than 300 nM and more than 50%. For the molecule `CC(C)CNC(=O)c1cnc(Nc2cc(F)cc(F)c2)cc1C(C)C` [Example 275, 6-(3,5-Difluoro-phenylamino)-N-isobutyl-4-isopropyl-nicotinamide], the concentration giving a half-maximal response (EC50) is less than 300 nM and the Emax is more than 50%. For `Cc1c(Br)cccc1Nc1cc(C(C)C)c(C(=O)NCC(C)C)cn1` [Example 272, 6-(3-Bromo-2-methyl-phenylamino)-N-isobutyl-4-isopropyl-nicotinamide], in that order: less than 300 nM and more than 50%.

Regarding `O=C(NC1CCC1)c1cnc(Nc2cc(Cl)cc(Cl)c2)cc1C(F)(F)F` [Example 148, N-Cyclobutyl-6-(3,5-dichloro-phenylamino)-4-trifluoro-methyl-nicotinamide], the concentration giving a half-maximal response (EC50) was less than 300 nM and the Emax is more than 50%.

Turning to `O=C(NCC1CC1)c1cnc(Nc2cccc(F)c2)cc1C(F)(F)F` [Example 132, N-Cyclopropylmethyl-6-(3-fluoro-phenylamino)-4-tri-fluoromethyl-nicotinamide], the EC50 was less than 300 nM and the Emax was more than 50%.

`Cc1ccc(Br)cc1Nc1cc(C(C)C)c(C(=O)NCC2CCOCC2)cn1` [Example 234, 6-(5-Bromo-2-methyl-phenylamino)-4-isopropyl-N-(tetrahydro-pyran-4-ylmethyl)-nicotinamide]: the EC50 was less than 300 nM and the Emax is more than 50%. As for `O=C(NCC1CCCC1)c1cnc(Nc2cccc(Cl)c2)cc1C(F)(F)F` [Example 114, N-Cyclopentylmethyl-6-(3-chlorophenylamino)-4-tri-fluoromethyl-nicotinamide], the EC50 is less than 300 nM and the Emax was more than 50%. For the molecule `CC(C)CNC(=O)c1cnc(Nc2cc(Cl)cc(Cl)c2)cc1C(F)(F)F` [Example 151, N-Isobutyl-6-(3,5-dichloro-phenylamino)-4-trifluoro-methyl-nicotinamide], the concentration giving a half-maximal response (EC50) is less than 300 nM and the Emax was more than 50%. On to `CC(C)c1cc(Nc2cc(Cl)ccc2Cl)ncc1C(=O)NCC1CCC1` [Example 264, N-Cyclobutylmethyl-6-(2,5-dichloro-phenylamino)-4-isopropyl-nicotinamide], for which the EC50 is less than 300 nM and the Emax was more than 50%. `O=C(NCC1CCC1)c1cnc(Nc2ccc(Cl)cc2Cl)cc1C(F)(F)F` [Example 142, N-Cyclobutylmethyl-6-(2,4-dichloro-phenylamino)-4-tri-fluoromethyl-nicotinamide]: the EC50 was less than 300 nM and the Emax was more than 50%. `O=C(NCC1CCOCC1)c1ccc(Nc2cccc(Cl)c2)nc1C(F)(F)F` [Example 204, 6-(3-Chloro-phenylamino)-N-(tetrahydro-pyran-4-ylmethyl)-2-trifluoromethyl-nicotinamide]: the EC50 is less than 300 nM and the Emax is more than 50%. Take `O=C(NCC1CCOCC1)c1cnc(Nc2cccc(Cl)c2Cl)cc1C(F)(F)F` [Example 135, N-(Tetrahydropyran-4-yl-methyl)-6-(2,3-dichloro-phenylamino)-4-trifluoro-methyl-nicotinanhide]: the EC50 was less than 300 nM and the maximal effect (Emax) was more than 50%.

Turning to `O=C(NCC1CCCC1)c1cnc(Nc2ccc(F)cc2Cl)cc1C(F)(F)F` [Example 164, N-Cyclopentylmethyl-6-(2-Chloro-4-fluoro-phenyl-amino)-4-trifluoromethyl-nicotinamide], the EC50 was less than 300 nM and the Emax is more than 50%. Take `O=C(NCC1CCC1)c1cnc(Nc2ccccc2F)cc1C(F)(F)F` [Example 124, N-Cyclobutylmethyl-6-(2-fluoro-phenylamino)-4-tri-fluoromethyl-nicotinamide]: the half-maximal effective concentration (EC50) is less than 300 nM and the maximal effect (Emax) was more than 50%.

Regarding `COc1cccc(Nc2cc(C(C)C)c(C(=O)NCC3CCC3)cn2)c1` [Example 38, N-Cyclobutylmethyl-4-isopropyl-6-(3-methoxy-phenylamino)-nicotinamide], the EC50 was less than 300 nM and the Emax was more than 50%.

`COc1cccc(Nc2cc(C(C)C)c(C(=O)NCC3CCOCC3)cn2)c1` [Example 41, 4-Isopropyl-6-(3-methoxy-phenylamino)-N-(tetrahydro-pyran-4-ylmethyl)-nicotinamide]: the Emax is more than 50%. `CC(C)c1cc(Nc2ccc(Cl)cc2Cl)ncc1C(=O)NCC1CCCC1` [Example 31]: the half-maximal effective concentration (EC50) is less than 300 nM and the Emax was more than 50%. Consider `CC(C)c1cc(Nc2cccc(Br)c2)ncc1C(=O)NCC1CCCCC1` [Example 12, 6-(3-Bromo-cyclohexylmethyl-4-phenylamino)-N-isopropyl-nicotinamide], for which the concentration for a half-maximal effect (EC50) is less than 300 nM and the Emax was more than 50%. Take `CC(C)c1cc(Nc2ccc(Br)c(Cl)c2)ncc1C(=O)NCC1CCOCC1` [Example 90, 6-(4-Bromo-3-chloro-phenylamino)-4-isopropyl-N-(tetrahydro-pyran-4-ylmethyl)-nicotinamide]: the concentration giving a half-maximal response (EC50) is less than 300 nM and the maximal effect (Emax) is more than 50%. In the case of `CC(C)c1cc(Nc2ccc(F)cc2Cl)ncc1C(=O)NCC1CCC1` [Example 253, 6-(2-Chloro-4-fluoro-phenylamino)-N-cyclobutylmethyl-4-isopropyl-nicotinamide], the EC50 is less than 300 nM and the Emax is more than 50%. For the molecule `CC(C)c1cc(Nc2ccc(F)cc2Cl)ncc1C(=O)NCC1CCCC1` [Example 29, 6-(2-Chloro-4-fluoro-phenylamino)-N-cyclopentylmethyl-4-isopropyl-nicotinamide], the EC50 was less than 300 nM and the Emax was more than 50%. Take `CC(C)c1nc(Nc2ccc(Cl)cc2Cl)ccc1C(=O)NCC1CCCC1` [Example 213, 6-(2,4-Dichloro-phenylamino)-N-cyclopentylmethyl-2-isopropyl-nicotinamide]: the half-maximal effective concentration (EC50) is less than 300 nM and the Emax is more than 50%. For `CC(C)c1cc(Nc2ccc(F)cc2F)ncc1C(=O)NCC1CCC1` [Example 249, N-Cyclobutylmethyl-6-(2,4-difluoro-phenylamino)-4-isopropyl-nicotinamide], the EC50 was less than 300 nM and the maximal effect (Emax) is more than 50%. For `Cc1cc(C#N)ccc1Nc1cc(C(C)C)c(C(=O)NCC2CCC2)cn1` [Example 261, 6-(4-Cyano-2-methyl-phenylamino)-N-cyclobutylmethyl-4-isopropyl-nicotinamide], the 50% effective concentration (EC50) is less than 300 nM and the maximal response (Emax) is more than 50%. For the molecule `CC(C)c1nc(Nc2cccc(F)c2)ccc1C(=O)NCC1CCC1` [Example 216, 6-(3-Fluoro-phenylamino)-N-cyclobutylmethyl-2-isopropyl-nicotinamide], the EC50 was less than 300 nM and the Emax is more than 50%. On the same counts, the results for `O=C(NCC1CCOCC1)c1cnc(Nc2cccc(Br)c2)cc1C(F)(F)F` [Example 118, N-(Tetrahydropyran-4-yl-methyl)-6-(3-bromophenyl-amino)-4-trifluoromethyl-nicotinamide] are less than 300 nM and more than 50%.

One may read the EC50 as the concentration needed to bring the measured effect to its halfway point. As a reminder, the Emax is the maximal effect, on the per cent scale that the assay sets.
